The text below walks through data of patent publication US20040063716A1, “Cholesterol biosynthesis inhibitors containing as the active ingredient tricyclic spiro compounds” (priority 2000, published 2004).

The test system of one assay is human plasma. As to the kind of experiment: Measurement of intrinsic coagulation time (APTT) in vitro. It counts as biochemical.
Details: not given
How it is done: Activated partial thromboplastin time (APTT) is measured in the presence of the test compounds diluted at various concentrations. A test compound diluted with DMSO at various concentrations is mixed with human plasma and APTT reagent. The mixture is incubated at 37° C. for 2 minutes; calcium chloride (25 mM) is added to the mixture; and the coagulation time is thereafter measured. It should be noted that the anticoagulant activity of the test compound is described in terms of the concentration required to double the coagulation time for the case where no test compound is added.
Regarding `O=C1CN(S(=O)(=O)C=Cc2ccc(Cl)s2)CC2OC3(CCN(c4ccncc4)CC3)CN12` (stereo not drawn) [Example 600, 1,4-Diaza-4-[2-(5-chlorothiophen-2-yl)ethenesulfonyl]-7-oxa-1′-(4-pyridyl)spiro[bicyclo[4.3.0]nonane-8,4′-piperidin]-2-one], the “Concentration required to double coagulation time” value (shortened to “Concentration required”) amounted to 0.22 µM.

For the compound `CC12CN(S(=O)(=O)c3ccc4cc(Cl)ccc4c3)CC(=O)N1CC1(CCN(c3ccncc3)CC1)O2` (stereo not drawn) [Example 69, 1,4-Diaza-4-(6-chloronaphthalen-2-ylsulfonyl)-6-methyl-7-oxa-1′-(4-pyridyl)spiro[bicyclo[4.3.0]nonane-8,4′-piperidin]-2-one], the “Concentration required” value was 0.36 µM.

For the compound `O=C1CN(S(=O)(=O)c2ccc3cc(Cl)ccc3c2)CC2OC3(CCN(c4ccncc4)CC3)CN12` (stereo not drawn) [Example 9, 1,4-Diaza-4-(6-chloronaphthalen-2-ylsulfonyl)-7-oxa-1′-(4-pyridyl)spiro[bicyclo[4.3.0]nonane-8,4′-piperidin]-2-one], the “Concentration required” value was determined as 0.29 µM.

For `COCC12CN(S(=O)(=O)c3cc4ccc(Cl)cc4s3)CC(=O)N1CC1(CCN(c3ccncc3)CC1)O2` (stereo not drawn) [Example 399, 1,4-Diaza-4-(6-chlorobenzo[b]thiophen-2-ylsulfonyl)-6-(methoxymethyl)-7-oxa-1′-(4-pyridyl)spiro[bicyclo[4.3.0]nonane-8,4′-piperidin]-2-one], the “Concentration required” value was 0.18 µM.

Consider `COCC12CN(S(=O)(=O)c3cc4cc(Cl)ccc4o3)CC(=O)N1CC1(CCN(c3ccncc3)CC1)N2` (stereo not drawn) [Example 471, 1,4,7-Triaza-4-(5-chlorobenzo[b]furan-2-ylsulfonyl)-6-(methoxymethyl)-1′-(4-pyridyl)spiro[bicyclo[4.3.0]nonane-8,4′-piperidin]-2-one], for which the “Concentration required” value turned out to be 0.27 µM.

Regarding `NCC12CN(S(=O)(=O)c3ccc4cc(Cl)ccc4c3)CC(=O)N1CC1(CCN(c3ccncc3)CC1)O2` (stereo not drawn) [Example 58, 6-(Aminomethyl)-1,4-diaza-4-(6-chloronaphthalen-2-ylsulfonyl)-7-oxa-1′-(4-pyridyl)spiro[bicyclo[4.3.0]nonane-8,4′-piperidin]-2-one], the “Concentration required” value came out at 0.18 µM.

With `O=C1CN(S(=O)(=O)c2cc3ccc(Cl)cc3s2)CC2NC3(CCN(c4ccncc4)CC3)CN12` (stereo not drawn) [Example 275, 1,4,7-Triaza-4-(6-chlorobenzo[b]thiophen-2-ylsulfonyl)-1′-(4-pyridyl)spiro[bicyclo[4.3.0]nonane-8,4′-piperidin]-2-one], the “Concentration required” value came to 0.17 µM.

With `COCC12CN(S(=O)(=O)c3ccc4ccccc4c3)CC(=O)N1CC1(CCN(c3ccncc3)CC1)O2` (stereo not drawn) [Example 6, 1,4-Diaza-6-(methoxymethyl)-4-(2-naphthalenesulfonyl)-7-oxa-1′-(4-pyridyl)spiro[bicyclo[4.3.0]nonane-8,4′-piperidin]-2-one], the “Concentration required” value was 0.99 µM.

Consider `COCC12CN(S(=O)(=O)C=Cc3ccc(Cl)s3)CC(=O)N1CC1(CCN(c3ccncc3)CC1)N2C` (stereo not drawn) [Example 740, 1,4,7-Triaza-4-[2-(5-chlorothiophen-2-yl)ethenesulfonyl]-6-(methoxymethyl)-7-methyl-1′-(4-pyridyl)spiro[bicyclo[4.3.0]nonane-8,4′-piperidin]-2-one], for which the “Concentration required” value was determined as 0.18 µM.

For the compound `COCC12CN(S(=O)(=O)c3cc4cc(Cl)ccc4o3)CC(=O)N1CC1(CCN(c3ccncc3)CC1)N2C` (stereo not drawn) [Example 533, 1,4,7-Triaza-4-(5-chlorobenzo[b]furan-2-ylsulfonyl)-6-(methoxymethyl)-7-methyl-1′-(4-pyridyl)spiro[bicyclo[4.3.0]nonane-8,4′-piperidin]-2-one], the “Concentration required” value was determined as 0.35 µM.

Regarding `COCCOC(=O)C12CN(S(=O)(=O)c3ccc4cc(Cl)ccc4c3)CC(=O)N1CC1(CCN(c3ccncc3)CC1)O2` (single isomer, unassigned; (-)) [Example 42, (−)-1,4-Diaza-4-(6-chloronaphthalen-2-ylsulfonyl)-6-(2-methoxyethoxycarbonyl)-7-oxa-1′-(4-pyridyl)spiro[bicyclo[4.3.0]nonane-8,4′-piperidin]-2-one], the “Concentration required” value was found to be 0.20 µM.

Take `COCC12CN(S(=O)(=O)c3ccc4cc(Cl)ccc4c3)CC(=O)N1CC1(CCN(c3cc[n+](C)cc3)CC1)O2.Cc1ccc(S(=O)(=O)[O-])cc1` (stereo not drawn) [Example 23, 4-[1,4-Diaza-4-(6-chloronaphthalen-2-ylsulfonyl)-6-(methoxymethyl)-7-oxa-2-oxospiro[bicyclo[4.3.0]nonane-8,4′-piperidin-1′-yl]]-1-methylpyridinium p-Toluenesulfonate]: the “Concentration required” value is 0.62 µM.

For the compound `COCC12CN(S(=O)(=O)c3cc4ccc(Cl)cc4s3)CC(=O)N1CC1(CCN(c3ccncc3)CC1)N2` (stereo not drawn) [Example 461, 1,4,7-Triaza-4-(6-chlorobenzo[b]thiophen-2-ylsulfonyl)-6-(methoxymethyl)-1′-(4-pyridyl)spiro[bicyclo[4.3.0]nonane-8,4′-piperidin]-2-one], the “Concentration required” value was determined as 0.16 µM.

Turning to `CC(C)OC(=O)C12CN(S(=O)(=O)c3ccc4cc(Cl)ccc4c3)CC(=O)N1CC1(CCN(c3ccncc3)CC1)O2` (stereo not drawn) [Example 29, 1,4-Diaza-4-(6-chloronaphthalen-2-ylsulfonyl)-6-(isopropoxycarbonyl)-7-oxa-1′-(4-pyridyl)spiro[bicyclo[4.3.0]nonane-8,4′-piperidin]-2-one], the “Concentration required” value stood at 0.90 µM.

As for `COCC12CN(S(=O)(=O)C3=Cc4ccc(Cl)cc4OC3)CC(=O)N1CC1(CCN(c3ccncc3)CC1)O2` (stereo not drawn) [Example 388, 1,4-Diaza-4-(7-chloro-2H-benzopyran-3-sulfonyl)-6-(methoxymethyl)-7-oxa-1′-(4-pyridyl)spiro[bicyclo[4.3.0]nonane-8,4′-piperidin]-2-one], the “Concentration required” value stood at 0.22 µM.

The target in a further assay is T1, human FXa (Homo sapiens, UniProt P00742).
T1 construct: purchased Enzyme Research Laboratories, Inc
T1 sequence (P00742 235-488 limits assumed): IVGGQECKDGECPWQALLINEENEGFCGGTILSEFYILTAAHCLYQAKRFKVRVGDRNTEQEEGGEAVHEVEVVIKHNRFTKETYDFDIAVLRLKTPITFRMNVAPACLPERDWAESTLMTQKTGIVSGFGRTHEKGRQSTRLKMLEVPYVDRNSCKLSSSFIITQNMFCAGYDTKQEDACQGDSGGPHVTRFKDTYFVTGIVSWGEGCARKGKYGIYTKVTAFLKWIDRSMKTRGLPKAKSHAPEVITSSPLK
T1 sequence (P00742 41-179 partner limits assumed): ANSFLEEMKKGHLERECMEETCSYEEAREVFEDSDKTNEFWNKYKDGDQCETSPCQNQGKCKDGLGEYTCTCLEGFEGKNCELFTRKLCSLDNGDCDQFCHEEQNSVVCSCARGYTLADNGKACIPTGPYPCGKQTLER
As to the kind of experiment: Measurement of human FXa inhibitory action (chromogenic substrate S-2222). It counts as biochemical. The settings on record: human FXa 0.019 U/ml, S-2222 0.4 mM, 37° C., pH 7.5. The method, then:
In vitro FXa inhibitory activity is measured in accordance with the method of Kettner et al. (Journal of Biological Chemistry, vol. 265, pages 18289 to 18297, 1990). To be more specific, human FXa (product of Enzyme Research Laboratories, Inc., 0.019 U/ml) is mixed with a test compound diluted with dimethylsulfoxide (DMSO) at various concentrations and a synthetic substrate S-2222 (Chromogenix AB, 0.4 mM). The mixtures are incubated at 37° C. in Tris-hydrochloric acid buffer (pH 7.5) while the absorbance at 405 nm is measured continuously. To calculate the FXa inhibitory activity of the test compound, the initial reaction velocity is compared with the value for a control containing no test compound. It should be noted that the FXa inhibitory activity of the test compound is generally indicated as IC50.
As a reminder, the IC50 is the midpoint of a concentration-inhibition curve. A low value points to greater potency. `COCC12CN(S(=O)(=O)C=Cc3ccc(Cl)s3)CC(=O)N1CC1(CCN(c3ccncc3)CC1)O2` (stereo not drawn) [Example 684, 1,4-Diaza-4-[2-(5-chlorothiophen-2-yl)ethenesulfonyl]-6-(methoxymethyl)-7-oxa-1′-(4-pyridyl)spiro[bicyclo[4.3.0]nonane-8,4′-piperidin]-2-one] yielded an IC50 of 1.8 nM.

`O=C1CN(S(=O)(=O)c2ccc3cc(Cl)ccc3c2)CC2(C(=O)O)OC3(CCN(c4ccncc4)CC3)CN12` (stereo not drawn) [Example 50, Ammonium 1,4-Diaza-4-(6-chloronaphthalen-2-ylsulfonyl)-7-oxa-2-oxo-1′-(4-pyridyl)spiro[bicyclo[4.3.0]nonane-8,4′-piperidine]-6-carboxylate] showed an IC50 of 1.9 nM.

With `O=C1CN(S(=O)(=O)c2ccc3cc(Cl)ccc3c2)CC2NC3(CCN(c4ccncc4)CC3)CN12` (stereo not drawn) [Example 765, 1,4,7-Triaza-4-(6-chloronaphthalen-2-ylsulfonyl)-1′-(4-pyridyl)spiro[bicyclo[4.3.0]nonane-8,4′-piperidin]-2-one], the IC50 was 5.7 nM.

For the compound `COCC12CN(S(=O)(=O)c3ccc4nc(Cl)ccc4c3)CC(=O)N1CC1(CCN(c3ccncc3)CC1)O2` (stereo not drawn) [Example 770, 1,4-Diaza-4-(2-chloroquinolin-6-ylsulfonyl)-6-(methoxymethyl)-7-oxa-1′-(4-pyridyl)spiro[bicyclo[4.3.0]nonane-8,4′-piperidin]-2-one], the IC50 was 1.8 nM.

`O=C1CN(S(=O)(=O)c2ccc3cc(Cl)ccc3c2)CC2OC3(CCN(c4ccncn4)CC3)CN12` (stereo not drawn) [Example 10, 1,4-Diaza-4-(6-chloronaphthalen-2-ylsulfonyl)-7-oxa-1′-(4-pyrimidinyl)spiro[bicyclo[4.3.0]nonane-8,4′-piperidin]-2-one] yielded an IC50 of 5.4 nM.

Compound `CCOC(=O)NCC12CN(S(=O)(=O)c3ccc4cc(Cl)ccc4c3)CC(=O)N1CC1(CCN(c3ccncc3)CC1)O2` (stereo not drawn) [Example 59, 1,4-Diaza-4-(6-chloronaphthalen-2-ylsulfonyl)-6-(ethoxycarbonylaminomethyl)-7-oxa-1′-(4-pyridyl)spiro[bicyclo[4.3.0]nonane-8,4′-piperidin]-2-one] gave an IC50 of 3.4 nM.

The compound `O=C1CN(S(=O)(=O)c2ccc3cc(Cl)ccc3c2)CC2(CN3CCOCC3)OC3(CCN(c4ccncc4)CC3)CN12` (stereo not drawn) [Example 61, 1,4-Diaza-4-(6-chloronaphthalen-2-ylsulfonyl)-6-(morpholinomethyl)-7-oxa-1′-(4-pyridyl)spiro[bicyclo[4.3.0]nonane-8,4′-piperidin]-2-one] yielded an IC50 of 2.8 nM. The IC50 values of the last two compounds are within 1.5-fold of each other.

For the compound `O=C1CN(S(=O)(=O)c2ccc3nc(Cl)ccc3c2)CC2OC3(CCN(c4ccncc4)CC3)CN12` (stereo not drawn) [Example 760, 1,4-Diaza-4-(2-chloroquinolin-6-ylsulfonyl)-7-oxa-1′-(4-pyridyl)spiro[bicyclo[4.3.0]nonane-8,4′-piperidin]-2-one], the IC50 worked out at 5.9 nM.

The compound `O=C1CN(S(=O)(=O)C=Cc2ccc(Cl)s2)CC2NC3(CCN(c4ccncc4)CC3)CN12` (stereo not drawn) [Example 628, 1,4,7-Triaza-4-[2-(5-chlorothiophen-2-yl)ethenesulfonyl]-1′-(4-pyridyl)spiro[bicyclo[4.3.0]nonane-8,4′-piperidin]-2-one] came in with an IC50 of 5.3 nM. The IC50 values of the last two compounds are within 1.5-fold of each other.
